For test [1], the system named is calf thymus DNA. Kind of test: Ethidium bromide assay, DNA-binding effects on calf thymus DNA. As to conditions: EtBr-DNA complex, compound 10 μM, 25 °C 30 min.
The target in test [2] is T1, recombinant human DHFR (Homo sapiens, UniProt P00374).
T1 sequence (P00374 1-187): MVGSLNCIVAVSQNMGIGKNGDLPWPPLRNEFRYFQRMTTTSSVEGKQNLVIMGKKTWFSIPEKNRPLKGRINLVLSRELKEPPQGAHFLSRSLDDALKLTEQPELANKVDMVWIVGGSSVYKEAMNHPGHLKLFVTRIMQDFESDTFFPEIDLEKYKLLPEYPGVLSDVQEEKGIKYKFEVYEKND
As to the kind of experiment: Dihydrofolate reductase. It is filed as biochemical.

The test system of test [3] is T4 coliphage DNA. As to the kind of experiment: Ethidium bromide assay, DNA-binding effects on T4 coliphage DNA. As to conditions: EtBr-DNA complex, compound 10 μM, 25 °C 30 min.
Test [4] deals with plasmid pBR322. Kind of test: Ethidium bromide assay, DNA-binding effects on plasmid pBR322. Conditions: EtBr-DNA complex, compound 10 μM, 25 °C 30 min; no drug = 100% fluorescence.
In test [5] the test system is poly(dG-dC)2. As to the kind of experiment: Ethidium bromide assay, DNA-binding effects on poly. As to conditions: EtBr-DNA complex, compound 10 μM, 25 °C 30 min.
Test [6] has as its system poly(dA-dT)2. The test is described as above. Conditions: EtBr-DNA complex, compound 10 μM, 25 °C 30 min.

Turning to `COc1ccc(-c2csc(N/N=C(/C=C/c3ccc(Cl)cc3)C(=O)O)n2)cc1` [Compound 7, (2Z,3E)-4-(4-Chlorophenyl)-2-(2-(4-(4-methoxyphenyl)thiazol-2-yl)hydrazinylidene)but-3-enoic acid], the “Decrease in fluorescence (%) Calf Thymus DNA” value (shortened to “Decrease … (%) Calf Thymus DNA”) in test [1] is on record as 44.21%. Also, in test [2], the IC50 (commonly the concentration that inhibits the measured activity by half) was determined as 39.41 ± 0.03 µM. Moreover, the “Decrease in fluorescence (%) T4 DNA” value in test [3] was determined as 36.58%. Moreover, the “Decrease in fluorescence (%) pBr322” value in test [4] is given as 62.36%. For the same molecule, in test [5], the “Decrease in fluorescence (%) Poly (dG-dC)2” value (shortened to “Decrease … (%) Poly (dG-dC)2”) was 62.38%.
As for `O=C(O)C(/C=C/c1ccc(Cl)cc1)=N\Nc1nc(-c2ccc(F)cc2)cs1` [Compound 8, (2Z,3E)-4-(4-Chlorophenyl)-2-(2-(4-(4-fluorophenyl)thiazol-2-yl)hydrazinylidene)but-3-enoic acid], the “Decrease … (%) Calf Thymus DNA” value in test [1] is 40.00%. Besides, the 50% inhibitory concentration (IC50) in test [2] amounted to 10.51 ± 0.05 µM. Also, in test [6], the “Decrease in fluorescence (%) Poly (dA-dT)2” value (“Decrease … (%) Poly (dA-dT)2” for short) is 52.83%. For the same molecule, in test [3], the “Decrease in fluorescence (%) T4 DNA” value worked out at 37.19%. In addition, the “Decrease in fluorescence (%) pBr322” value in test [4] is reported as 60.93%. Further, in test [5], the “Decrease … (%) Poly (dG-dC)2” value is reported as 62.99%.
On to `O=C(O)C(/C=C/c1ccc(Cl)cc1)=N\Nc1nc(-c2ccc(Cl)cc2)cs1` [Compound 9, (2Z,3E)-4-(4-Chlorophenyl)-2-(2-(4-(4-chlorophenyl)thiazol-2-yl)hydrazinylidene)but-3-enoic acid], for which the “Decrease … (%) Calf Thymus DNA” value in test [1] stood at 53.68%. Further, the half-inhibitory concentration (IC50) in test [2] is 36.18 ± 0.01 µM. The “Decrease … (%) Poly (dA-dT)2” value in test [6] is 71.19%. Also, in test [3], the “Decrease in fluorescence (%) T4 DNA” value was found to be 50.00%. Moreover, the “Decrease in fluorescence (%) pBr322” value in test [4] was found to be 53.40%. Moreover, the “Decrease … (%) Poly (dG-dC)2” value in test [5] is given as 49.23%.
Turning to `O=C(O)C(/C=C/c1ccc(Cl)cc1)=N\Nc1nc(-c2ccc(Br)cc2)cs1` [Compound 10, (2Z,3E)-4-(4-Chlorophenyl)-2-(2-(4-(4-bromophenyl)thiazol-2-yl)hydrazinylidene)but-3-enoic acid], in test [1], the “Decrease … (%) Calf Thymus DNA” value was 30.53%. Moreover, the half-inhibitory concentration (IC50) in test [2] was 58.29 ± 0.02 µM. Also, the “Decrease … (%) Poly (dA-dT)2” value in test [6] came out at 39.34%. Further, the “Decrease in fluorescence (%) T4 DNA” value in test [3] is reported as 32.32%. Moreover, the “Decrease in fluorescence (%) pBr322” value in test [4] was found to be 53.76%. Also, the “Decrease … (%) Poly (dG-dC)2” value in test [5] was 50.15%.
For the molecule `O=C(O)C(/C=C/c1c(Cl)cccc1Cl)=N\Nc1nc(-c2ccccc2)cs1` [Compound 12, (2Z,3E)-4-(2,6-dichlorophenyl)-2-(2-(4-phenylthiazol-2-yl)hydrazinylidene)but-3-enoic acid], the “Decrease … (%) Calf Thymus DNA” value in test [1] was determined as 60.53%. In addition, the IC50 in test [2] turned out to be 21.06 ± 0.02 µM. The “Decrease … (%) Poly (dA-dT)2” value in test [6] is reported as 54.80%. The “Decrease in fluorescence (%) T4 DNA” value in test [3] is recorded as 48.17%. Also, in test [4], the “Decrease in fluorescence (%) pBr322” value is reported as 54.84%. Also, in test [5], the “Decrease … (%) Poly (dG-dC)2” value came to 59.37%.
`Cc1ccc(-c2csc(N/N=C(/C=C/c3c(Cl)cccc3Cl)C(=O)O)n2)cc1` [Compound 13, (2Z,3E)-4-(2,6-dichlorophenyl)-2-(2-(4-(4-tolyl)thiazol-2-yl)hydrazinylidene)but-3-enoic acid]: the “Decrease … (%) Calf Thymus DNA” value in test [1] is 67.71%. The IC50 in test [2] amounted to 18.06 ± 0.03 µM. The “Decrease … (%) Poly (dA-dT)2” value in test [6] turned out to be 55.74%. Further, in test [3], the “Decrease in fluorescence (%) T4 DNA” value came out at 51.22%. For the same molecule, in test [4], the “Decrease in fluorescence (%) pBr322” value came to 62.01%. In addition, the “Decrease … (%) Poly (dG-dC)2” value in test [5] stood at 75.62%.
As for `COc1cccc2c1C(=O)c1c(O)c3c(c(O)c1C2=O)C[C@@](O)(C(=O)CO)C[C@@H]3O[C@H]1C[C@H](N)[C@H](O)[C@H](C)O1` [DOX, doxorubicin, reference compound], the IC50 in test [2] was found to be 8.31 ± 0.06 µM. Further, in test [4], the “Decrease in fluorescence (%) pBr322” value came out at 100%.
With `COc1cc(Cc2cnc(N)nc2N)cc(OC)c1OC` [TMP, trimethoprim, reference compound], the “Decrease in fluorescence (%) pBr322” value in test [4] was 100%.
